This note sets out measurements from patent US20020132276A1, “FACS method for detecton of GPIIb/IIIa inhibitor dependent activators in plasma samples” (priority 1999, published 2002).

“Also recorded” adds a separate entry of the source.

Data set [1] concerns platelet CD62. The experiment in a line: DDPASFCA in alternative microtiter plates (Costar Serocluster #3897 versus #3898). It counts as cell-based, human. The conditions noted are these: Compound A 200 nM. On the procedure: ADP and DPC38 were used as sources of DDPASs. 2 μL of citrated PRP (DPC3) was added to either Costar Serocluster® 96 well V-bottom microtiterplates (#3897) or #3898 microtiter plates (Costar Serocluster®) (rated as “hydrophilic” in nature by the manufacturer). Platelets were then treated with and without Compound A (200 nM) with the indicated concentrations of ADP. Similarly, DDPAS positive PRP (DPC38) was added to wells of both types of plates and treated with and without Compound A (200 nM). Reactions were incubated without shaking for 120 minutes. After this time, 20 μL of phycoerythrin conjugated anti-CD62 (anti-CD62-PE, Bectin Dickinson) was added. After 30 minutes the samples were diluted with 150 μL flow buffer and bound anti-CD62-PE measured as described in Example 1.
Delta SC=Delta Fluorescence for Costar Serocluster microtiter plates
Delta H=Delta Fluorescence for H3898 microtiter plates

For data set [2], the system named is platelet CD62. Nature of the data set: Modified DDPASFCA using the donor's own platelets. It counts as cell-based. The conditions noted are these: healthy human donor, Compound A 200 nM. On the procedure:
The occurrence of DDPASs in the general population was tested by a modification of the DDPASFCA using the donor's own platelets to conduct the assay. PRP (100 μL) from healthy human donors was treated with Compound A (200 nM) or vehicle for 90 minutes. A 5μL sample was transferred to microtiter wells containing 20 μL anti-CD62-PE and samples analyzed by flow cytometry as described in Example 1. Positive samples (defined as Delta PE fluorescence of >0) were retested using the method of Example 1 (heterologous donor). 8% of donors were weakly positive (delta between 10 and 25). […] Thus, the prevalence and titer of pre-existing DDPASs is relatively low in the general population.

A short description of data set [3]: Thrombocytopenia in a patient who received Compound A. Type of data set: in vivo, human. To be noted: patient #304. As to the method:
The development of DDPASs in the plasma of a patient who received Compound A and developed thrombocytopenia was analyzed using the procedure of Example 1. DDPASFCA was not determined for patient #304 prior to taking Compound A. The patient experienced thrombocytopenia after 3 days of administration of Compound A. DDPASs were subsequently detected in this patient's plasma on day 22 post-administration of Compound A and were also detected 17 months later (FIG. 2). DPC38 was used as a positive control. DPC3 was used as a negative control. […] In a prospective study, a patient with such pre-existing DDPASs could be excluded from the study, possibly preventing the clinically significant thrombocytopenic episode.

The subject of data set [4] is drug-dependent anti-platelet antibody (DDAB). Nature of the data set: Depletion and recovery of DDAB from patient 099016 plasma by platelets with Compound A, read in the DDAB ELISA. Type of data set: binding, human. As to the method:
Thrombocytopenic patient plasma was processed as described in Example 9. After treatment of 099016 plasma with platelets in the presence and in the absence of Compound A, samples were evaluated in the DDAB ELISA (see commonly-owned pending U.S. patent application Ser. No. 09/237061, filed Jan. 26, 1999, the contents of which are herein incorporated by reference) at 3 dilutions (1/100; 1/250 and 1/500) for residual DDAB. Murine JK094 was used as a positive control for the ELISA.
Thrombocytopenic patient 099016 plasma was processed with platelets in the presence or the absence of Compound A to deplete any DDAB as described in Example 9. After treatment of 099016 plasma with platelets in the presence and in the absence of Compound A, samples were evaluated in the DDAB ELISA at 3 dilutions (1/100, 1/250 and 1/500) for residual DDAB. Murine JK094 was used as a positive control for the ELISA.

Data set [5] has as its system platelet CD62. The experiment in a line: Detection of ADP as a GPIIb/IIIa DDPAS by DDPASFCA
Type of data set: cell-based, human. To be noted: ADP 0 μM. On the procedure: Adenosine diphosphate (ADP) was evaluated as a possible DDPAS as follows: Compound A (final concentration 1 μM) or vehicle was added to 25 μL of freshly prepared PRP in wells of a 96-well microtiter plate. Another set of wells received vehicle. After 10 minutes, 2.5 μL of from each well was transferred to microtiter wells containing only 20 μL of anti-CD62-PE. After incubation for 30 minutes, samples were analyzed by flow cytometry as in Example 1.

The mark [6] stands for this setting: platelet donor DPC38 (DDPAS positive PRP), ADP 0 uM.
Setting [7] is: platelet donor DPC50 (DDPASFCA negative), ADP 0 uM.

On to `CCCCOC(=O)N[C@@H](CNC(=O)C[C@H]1CC(c2ccc(C(=N)N)cc2)=NO1)C(=O)O` [Compound A, 2(S)-[(n-butoxycarbonyl)amino]-3-[[[3-[4-(aminoiminomethyl)phenyl]isoxazolin-5(R)-yl]methylcarbonyl]amino]propionic acid], for which the “Delta CS (Delta Fluorescence for Costar Serocluster microtiter plates)” value is on record as 24 in the data set with platelet CD62 [1] (platelet donor DPC3, ADP 0 uM); 190 with platelet CD62 [1] (setting [6]); 0 in the data set on platelet CD62 [1] (setting [7]). Besides, the “Delta H (Delta Fluorescence for H3898 microtiter plates)” value in the data set with platelet CD62 [1] (platelet donor DPC3, ADP 0 uM) is given as 28; in the data set with platelet CD62 [1] (setting [6]) it was 338; with platelet CD62 [1] (setting [7]), −1. Also, in the data set with platelet CD62 [2], the “Delta PE fluorescence of the significantly positive sample” value is reported as 566. The “time to thrombocytopenia after start of administration” value in data set [3] came to 3 days. Further, the “residual DDAB in plasma after treatment with platelets” value in data set [4] (patient 099016 plasma, donor platelets, Compound A, dilutions 1/100, 1/250 and 1/500) was “specifically depleted the DDAB”. In data set [4] (platelets treated with 099016 plasma with Compound A), the “DDAB in EDTA eluants of platelets” value is reported as “showed DDAB; also recorded: contain a detectable DDAB”. Moreover, the “+ compound Med F12” value in the data set with platelet CD62 [5] (Compound A 1 μM alone) is on record as 11. Also, in the data set with platelet CD62 [5] (with minus without Compound A 1 μM), the “Delta Med F12” value is given as −1.
